A word on the pIC50: it is −log10 of the IC50, conventionally taken in molar units.

pIC50: −log10 of the molar value. Where two headings read alike, the source gives them in different places. Bounds are passed on as bounds.

The values below come from PMC4503722, “Novel Phenotypic Outcomes Identified for a Public Collection of Approved Drugs from a Publicly Accessible Panel of Assays” (PLoS ONE, 2015).

The subject of assay [1] is Colo320. In words: cells. Format: cell-based.
Assay [2] concerns SW480. Description: cells. Format: cell-based.
The subject of assay [3] is HCT116. In words: cells. Format: cell-based.
The subject of assay [4] is HT-29. In words: cells. Format: cell-based.
For assay [5], the system named is HCT116 cells treated with a GSK3β inhibitor. In words: cells. Conditions: for IC50/EC50, GSK3b inh pretreated_Viability ATP HCT116 (assay number 26): GSK3b inh pretreated. Format: cell-based.
Assay [6] concerns DLD-1. In words: cells. Format: cell-based.
Assay [7] relates to SNU-C1. Description: cells. Format: cell-based.
For assay [8], the system named is RKO. In words: cells. Format: cell-based.
The test system of assay [9] is endothelial tube formation in co-cultures of ECFCs and ADSCs treated with VEGF. In words: cells. Format: cell-based, human.
The test system of assay [10] is HeLa cells. Description: cells. Format: cell-based.
For assay [11], the system named is ECFC/ADSC co-culture cell nuclei number.
The mark [12] stands for this setting: assay number 26, GSK3b inhibitor pretreated.

For `CN1CCC(=C2c3ccccc3C=Cc3ccccc32)CC1` [NCGC00015252-12], the “Basal_Viability ATP Colo 320 IC50/EC50” value in assay [1] (assay number 27, basal) is greater than 20 µM. Moreover, the “Basal_Viability ATP SW480 IC50/EC50” value in assay [2] (assay number 24, basal) came to 5.9167 µM. In addition, the “Basal_Viability ATP HCT116 IC50/EC50” value in [3] (assay number 25, basal) is reported as greater than 20 µM. Besides, in assay [4] (assay number 28, basal), the “Basal_Viability ATP HT-29 IC50/EC50” value is greater than 20 µM. In addition, the “GSK3b inh pretreated_Viability ATP HCT116 IC50/EC50” value in assay [5] (setting [12]) is greater than 20 µM. For the same compound, the “Basal_Viability ATP DLD-1 IC50/EC50” value in assay [6] (assay number 23, basal) is reported as greater than 20 µM. The “Basal_Viability ATP SNU-C1 IC50/EC50” value in assay [7] (assay number 30, basal) was 10.7827 µM. For the same compound, in [8] (assay number 29, basal), the “Basal_Viability ATP RKO IC50/EC50” value stood at 11.2853 µM.

`N#CC(C#N)=Cc1ccc(O)c(O)c1` [NCGC00016043-08]: the “IC50/EC50, Basal_Viability ATP Colo 320 (assay number 27)” value in assay [1] (basal) was determined as 6.7406 µM. Moreover, the “IC50/EC50, Basal_Viability ATP SW480 (assay number 24)” value in [2] (basal) is listed as greater than 20 µM. Also, the “IC50/EC50, Basal_Viability ATP HCT116 (assay number 25)” value in [3] (basal) is greater than 20 µM. The “IC50/EC50, Basal_Viability ATP HT-29 (assay number 28)” value in assay [4] (basal) is greater than 20 µM. Further, the “IC50/EC50, GSK3b inh pretreated_Viability ATP HCT116 (assay number 26)” value in assay [5] is on record as greater than 20 µM. Besides, the “IC50/EC50, Basal_Viability ATP DLD-1 (assay number 23)” value in assay [6] (basal) is greater than 20 µM. The “IC50/EC50, Basal_Viability ATP SNU-C1 (assay number 30)” value in [7] (basal) is listed as greater than 20 µM. In assay [8] (basal), the “IC50/EC50, Basal_Viability ATP RKO (assay number 29)” value came out at 3.7756 µM.

In the case of `Cc1nnc(NS(=O)(=O)c2ccc(N)cc2)s1` [NCGC00016407-08], the pIC50 was less than 4.70 in assay [1] (assay number 27, basal, read-out: Basal_Viability ATP Colo 320 summarized IC50); less than 4.70 in assay [2] (assay number 24, basal, read-out: Basal_Viability ATP SW480 summarized IC50); less than 4.70 in assay [3] (assay number 25, basal, read-out: Basal_Viability ATP HCT116 summarized IC50); less than 4.70 in [4] (assay number 28, basal, read-out: Basal_Viability ATP HT-29 summarized IC50); less than 4.70 in assay [5] (assay number 26, GSK3b inhibitor pretreated, read-out: GSK3b inh pretreated_Viability ATP HCT116 summarized IC50); less than 4.70 in assay [6] (assay number 23, basal, read-out: Basal_Viability ATP DLD-1 summarized IC50). Further, the pIC50 in [7] (assay number 30, basal, read-out: Basal_Viability ATP SNU-C1 summarized IC50) was less than 4.70; in assay [8] (assay number 29, basal, read-out: Basal_Viability ATP RKO summarized IC50) it was less than 4.70.

As for `O=C1C(=O)c2ccccc2C(O)=C1C1CCC(c2ccc(Cl)cc2)CC1` (stereo not shown) [NCGC00016961-06], the “Basal_Viability ATP Colo 320 IC50/EC50” value in assay [1] (assay number 27, basal) is on record as 0.1764 µM. Moreover, in assay [2] (assay number 24, basal), the “Basal_Viability ATP SW480 IC50/EC50” value is reported as 0.0946 µM. Also, the “Basal_Viability ATP HCT116 IC50/EC50” value in assay [3] (assay number 25, basal) turned out to be 0.1384 µM. In addition, the “VEGF_ADSC\ECFC Angio CD31 TubeArea IC50/EC50” value in [9] is 5.1845 µM. Moreover, the “Basal_Viability ATP HT-29 IC50/EC50” value in [4] (assay number 28, basal) came to 0.4112 µM. Moreover, in assay [10] (assay number 14, 2N), the “Hela CellCycMod PI 2N IC50/EC50” value is on record as greater than 10 µM. Further, in assay [10] (assay number 16, 4N), the “Hela CellCycMod PI 4N IC50/EC50” value is reported as greater than 10 µM. Moreover, the “Hela CellCycMod PI MI IC50/EC50” value in assay [10] (assay number 17, MI) is given as greater than 10 µM. The “Hela CellCycMod PI Cell Number IC50/EC50” value in assay [10] (assay number 18, cell number) is greater than 10 µM. In assay [6] (assay number 23, basal), the “Basal_Viability ATP DLD-1 IC50/EC50” value came to 0.0838 µM. The “Basal_Viability ATP SNU-C1 IC50/EC50” value in assay [7] (assay number 30, basal) was 0.3675 µM. Also, in assay [8] (assay number 29, basal), the “Basal_Viability ATP RKO IC50/EC50” value came out at 0.1142 µM. The “VEGF_ADSC\ECFC Angio Hoechst NucArea IC50/EC50” value in assay [11] is given as greater than 10 µM.

On to `C1CCC(C(CC2CCCCN2)C2CCCCC2)CC1.O=C(O)/C=C\C(=O)O` (stereo not shown) [NCGC00018261-06], for which the “Basal_Viability ATP Colo 320 IC50/EC50” value in [1] was 8.8632 µM. Further, the “Basal_Viability ATP SW480 IC50/EC50” value in assay [2] came out at 5.7603 µM. For the same compound, the “Basal_Viability ATP HCT116 IC50/EC50” value in assay [3] is greater than 20 µM. Moreover, the “Basal_Viability ATP HT-29 IC50/EC50” value in assay [4] was determined as 6.8652 µM. Also, in [5], the “GSK3b inh pretreated_Viability ATP HCT116 IC50/EC50” value is recorded as 7.4207 µM. In addition, the “Basal_Viability ATP DLD-1 IC50/EC50” value in assay [6] was greater than 20 µM. Moreover, in assay [7], the “Basal_Viability ATP SNU-C1 IC50/EC50” value is 2.48 µM. Further, the “Basal_Viability ATP RKO IC50/EC50” value in assay [8] is on record as 7.8491 µM.

`CCCCCCCCCCCCCCCCOP(=O)([O-])OCC[N+](C)(C)C` [NCGC00095169-05]: the “Basal_Viability ATP Colo 320 IC50/EC50” value in assay [1] (assay number 27, basal) stood at 1.49 µM. Moreover, the “Basal_Viability ATP SW480 IC50/EC50” value in assay [2] (assay number 24, basal) was determined as 0.4782 µM. In [3] (assay number 25, basal), the “Basal_Viability ATP HCT116 IC50/EC50” value turned out to be 3.393 µM. The “Basal_Viability ATP HT-29 IC50/EC50” value in [4] (assay number 28, basal) was 1.955 µM. In addition, the “GSK3b inh pretreated_Viability ATP HCT116 IC50/EC50” value in assay [5] (setting [12]) is given as 1.476 µM. In addition, in [6] (assay number 23, basal), the “Basal_Viability ATP DLD-1 IC50/EC50” value amounted to 1.23 µM. In addition, the “Basal_Viability ATP SNU-C1 IC50/EC50” value in assay [7] (assay number 30, basal) stood at 0.9649 µM. For the same compound, the “Basal_Viability ATP RKO IC50/EC50” value in assay [8] (assay number 29, basal) is reported as 0.4372 µM.

For `Nc1ccc(C(=O)Nc2ccccc2N)cc1` [NCGC00160373-02], the “IC50/EC50, Basal_Viability ATP Colo 320 (assay number 27)” value in assay [1] (basal) is greater than 20 µM. The “IC50/EC50, Basal_Viability ATP SW480 (assay number 24)” value in [2] (basal) was greater than 20 µM. Also, the “IC50/EC50, Basal_Viability ATP HCT116 (assay number 25)” value in assay [3] (basal) is greater than 6.6667 µM. Moreover, the “IC50/EC50, Basal_Viability ATP HT-29 (assay number 28)” value in [4] (basal) is on record as greater than 20 µM. In addition, the “IC50/EC50, GSK3b inh pretreated_Viability ATP HCT116 (assay number 26)” value in assay [5] came to 12.8536 µM. In addition, in assay [6] (basal), the “IC50/EC50, Basal_Viability ATP DLD-1 (assay number 23)” value is greater than 20 µM. The “IC50/EC50, Basal_Viability ATP SNU-C1 (assay number 30)” value in assay [7] (basal) is given as greater than 20 µM. The “IC50/EC50, Basal_Viability ATP RKO (assay number 29)” value in [8] (basal) is listed as greater than 20 µM.
